Test results published in PMC6218115, “In Vitro Potency and Preclinical Pharmacokinetic Comparison of All-D-Enantiomeric Peptides Developed for the Treatment of Alzheimer’s Disease” (Journal of Alzheimer's Disease, 2018).
Non-standard residues stand in square brackets, D forms with d. Residues, ends and D or L forms follow the SMILES beside them.

Key:
[1] = Pharmacokinetic concentration-time profiles and parameters after i.v. and p.o. administration; assay type: in vivo, C57Bl/6N mice; settings: mice; for brain/plasma ratio: 24 h after administration; for Cmax, brain / Cmax, plasma: 3H-label LSC; for Cmax, plasma: 3 mice/time point; for AUC %ID,0 - 1440, plasma: non-compartmental analysis; for F (AUC %ID), oral bioavailability: p.o. 10 mg/kg (ANK6, tANK6) or 15 mg/kg (cANK6r) versus i.v. 3.3 mg/kg, plasma AUC %ID
Description: The pharmacokinetic profiles were investigated in 180 male C57Bl/6N mice aged 13-14 weeks, weighing about 27.4 g in average. Mice were ordered at Charles River (Germany) and housed at least one week under standard housing conditions (12/12 h light-dark cycle, approximately 22°C room temperature and 54% humidity; water and food available ad libitum) in the animal facility of the Forschungszentrum Jülich GmbH before the experiments were carried out. All animal experiments were approved by the Animal Protection Committee of the local government according to the German Protection of Animals Act (LANUV, North-Rhine-Westphalia, Germany, Az.84-02.04.2017.A029).
To determine the concentration-time profiles of ANK6, tANK6, and cANK6r in murine brain, plasma, liver, kidney, and cerebrospinal fluid (CSF) after i.v. and p.o. administration, mixed solutions of non-labelled and ^3H-labelled peptides were prepared. The administered solutions contained 1 mg/mL (i.v.) or 3 mg/mL (p.o.) of the respective D-peptide including small amounts of ^3H-labelled peptides (0.54μg/mL ^3H-ANK6, 1.79μg/mL ^3H-tANK6, or 0.98μg/mL ^3H-cANK6r). Doses were administered by body weight: i.v. 3.3 mg/kg, ANK6 & tANK6 p.o. 10 mg/kg, cANK6r p.o. 15 mg/kg. Three male C57Bl/6N mice aged 13-14 weeks were investigated per time point whereby individual outliers were excluded from further evaluation. Organs were harvested as follows: i.v. 5, 10, 30, 60, 120, 240, 360, 1080, 1440 min; p.o.: 10, 20, 30, 60, 120, 240, 360, 1080, 1440 min.
Animals whose CSF was not extracted were anesthetized with isoflurane (cp-pharma, Germany) inhalation approximately 2 min before each organ harvesting time point. Afterwards, blood was taken by cardiac puncture and the heparinized blood was centrifuged (3000 g, 5 min, 4°C) to get plasma. The plasma in the supernatant was separated and 1:1 diluted with PBS. The right brain hemisphere, 200 mg of the big liver lobe, and the right kidney were removed, weighed, and homogenized in 500μL PBS (Precellys Ceramic Kit 1.4 mm, Precellys 24, Bertin technologies SAS, France). 100μL of the diluted plasma, the homogenized brain, liver, or kidney (in triplicates), or 1–5μL (exactly determined) of the extracted CSF (extraction procedure see below, single determination) were mixed with 10 mL scintillation cocktail (Ultima Gold XR, PerkinElmer, USA). The mixture was incubated overnight (100 rpm, room temperature).
Animals whose CSF was extracted (organ harvesting time points: 60 min, 240 min, 1440 min) were i.p. anesthetized with ketamine/medetomidine approximately 20 min before each sampling time point. When the mouse was in deep narcosis, the cisterna magna was laid free and punctuated with a small capillary to extract about 5μL of CSF as described before. Afterwards, cardiac puncture, organ extractions, and sample preparations were performed as described above.
Quantification of the amount of ^3H-labelled D-peptides was performed with a LSC and the results (dpm/sample) were converted into mg/mL or % injected dose (% ID)/mL for plasma and for CSF, or in mg/g or % ID/g for brain, liver, and kidney as described before. Total peptide concentrations in the samples were back-calculated from the measured ^3H-labelled peptides’ radioactivity as described before [[20, 25, 26, 29]].
The determined peptide concentrations were plotted over time to allow for comparison of all peptides’ uptake into brain, plasma, liver, kidney, and CSF. Concentrations at 0 min were set to 0 % ID/mL or 0 % ID/g except for plasma concentrations after i.v. administration. There, concentrations were linearly back-extrapolated based on the first two measured time points (5 min, 10 min).
To calculate the pharmacokinetic parameters of ANK6, tANK6, and cANK6r for plasma and brain, concentration-time profiles were analyzed. […]

[2] = Cell viability assay (MTT), Aβ1-42-induced cytotoxicity; assay type: cell-based, rat
Description: The cells (10,000 cells/well) were incubated on collagen coated 96 well plates (Gibco, Life Technologies, # A11428-03) for growth in adherent cell culture (24 h, 37°C). Oligomeric Aβ was generated by incubating monomeric Aβ1 - 42 in sodium phosphate buffer (10 mM Na2HPO4/NaH2PO4, pH 7.4) at 21°C and 600 rpm agitation for 4.5 h. […] Absorbance readout was detected with a Polarstar Optima plate reader (BMG, Germany) at 570 and 660 nm. The relative cell viability [%] was calculated by normalizing the absorbance readout to the positive control (PC12 cells incubated with buffer). The IC50 value was determined by plotting the relative cell viability [%] against the respective D-peptides' concentrations. Datasets were fitted by nonlinear regression (logistic fit; OriginPro 9.0G).

[3] = Blood-brain barrier values (logBB, Kin, Vi, PS); assay type: in vivo, C57Bl/6N mice; settings: mice; for logBB, blood-brain equilibrium distribution: after i.v. administration 3.3 mg/kg, log(AUClast,br/AUClast,pl); for PS, permeability surface-area product / Vin / Kin, unidirectional influx rate constant: after i.v. administration; for PS, permeability surface-area product: CBF 1.07 mL/(g*min); for Vin: graphical determination (initial distribution volume in brain); for Kin, unidirectional influx rate constant: graphical determination, linear range 0-240 min (ANK6, cANK6r), 0-1440 min (tANK6)
Description: To allow for direct comparison with other peptides, four universally applied BBB parameters were determined: the blood-brain equilibrium distribution (logBB), the […] influx rate constant (Kin), the initial distribution volume in brain (Vi), and the permeability surface-area product (PS). Based on data of the concentration-time profiles and pharmacokinetic parameters after i.v. administration, the BBB parameters were calculated with the help of the formulas listed in Table 2. Graphical determination of Kin and Vi was conducted by plotting the brain concentration to plasma concentration ratio at certain time points (Cb (t)/Cp (t) [mL/g]) on the y-axis against the exposure time (AUCp (t)/Cp (t) [min]) on the x-axis. The linear range for Kin and Vi determination was between 0 and 240 min for ANK6 and cANK6r (R^2: 0.9970, 0.9996) and between 0 and 1440 min for tANK6 (R^2: 0.9758). PS was calculated on the basis of a murine cerebral blood flow (CBF) of 1.07 mL/(g*min).

[4] = i.v. 3.3 mg/kg, back-extrapolated to 0 min
[5] = p.o. 10 mg/kg (ANK6, tANK6) or 15 mg/kg (cANK6r)

AUC %ID,0 - 1440, brain ([1]; i.v. 3.3 mg/kg) [min*% ID/g]	CL, terminal plasma clearance ([1]; i.v. 3.3 mg/kg) [mL/min/kg]	MRT, plasma ([1]; i.v. 3.3 mg/kg) [h]	t1/2, terminal half-life, plasma ([1]; i.v. 3.3 mg/kg) [h]	tmax, brain ([1]; i.v. 3.3 mg/kg) [h]	tmax, plasma ([1]; i.v. 3.3 mg/kg) [h]	λz, terminal elimination rate constant, plasma ([1]; i.v. 3.3 mg/kg) [min⁻¹]	Cmax, brain ([1]; i.v. 3.3 mg/kg) [% ID/g]	Cmax, plasma [1, 4] [% ID/mL]	AUC %ID,0 - 1440, plasma ([1]; i.v. 3.3 mg/kg) [min*% ID/mL]	AUC %ID,0 - 1440, brain [1, 5] [min*% ID/g]	CL, terminal plasma clearance [1, 5] [mL/min/kg]	MRT, plasma [1, 5] [h]	t1/2, terminal half-life, plasma [1, 5] [h]	tmax, brain [1, 5] [h]	tmax, plasma [1, 5] [h]	λz, terminal elimination rate constant, plasma [1, 5] [min⁻¹]	F (AUC %ID), oral bioavailability [1] [%]	Cmax, brain [1, 5] [% ID/g]	Cmax, plasma [1, 5] [% ID/mL]	Structure (SMILES)	also measured
56.6	88.9	7	18	0.5	0	0.00063	0.06	0.40	26.1	22.5	113.0	11	31	18	4	0.00038	49.4	0.02	0.02	CC[C@@H](C)[C@@H](NC(=O)[C@@H](CCCNC(=N)N)NC(=O)[C@@H](CCCCN)NC(=O)[C@H](N)CCCNC(=N)N)C(=O)N[C@H](CCCNC(=N)N)C(=O)N[C@H](CC(C)C)C(=O)N[C@@H](C(=O)N[C@@H](C(=O)N[C@H](CCCCN)C(=O)N[C@H](CCCCN)C(=O)N[C@H](CCCCN)C(=O)N[C@H](CCCNC(=N)N)C(=O)N[C@H](CCCNC(=N)N)C(=O)N[C@H](CCCCN)C(=O)N[C@H](CCCNC(=N)N)C(=O)N[C@@H](C(=O)N[C@H](CCCNC(=N)N)C(=O)N[C@H](CC(C)C)C(=O)N[C@@H](C(=O)N[C@@H](C(=O)N[C@H](CCCCN)C(=O)N[C@H](CCCCN)C(=O)N[C@H](CCCCN)C(=O)N[C@H](CCCNC(=N)N)C(N)=O)[C@H](C)O)C(C)C)[C@H](C)CC)[C@H](C)O)C(C)C [tANK6] (H-[dR][dK][dR][dI][dR][dL][dV][dT][dK][dK][dK][dR][dR][dK][dR][dI][dR][dL][dV][dT][dK][dK][dK][dR]-NH2; N-terminus assumed)	peptide concentration detected in the blood ([1]; 4 h after single oral administration of 10 mg/kg): 0.01 µM; brain/plasma ratio ([1]; i.v.): 6.89; AUC %ID,0 - 1440, plasma [1, 5]: 12.9 min*% ID/mL; IC50 [2]: 4.4 µM; logBB, blood-brain equilibrium distribution [3]: 0.335; PS, permeability surface-area product [3]: 0.0016 mL/g/min; Vin [3]: 0.5833 mL/g; Kin, unidirectional influx rate constant [3]: 0.0016 mL/g/min
85.6	18.4	2	18	0.083	0	0.00064	0.12	3.29	181.0	19.1	135.5	9	30	6	1	0.00039	9.9	0.02	0.05	CC[C@@H](C)[C@H]1NC(=O)[C@@H](CCCNC(=N)N)NC(=O)[C@@H](CCCCN)NC(=O)[C@@H](CCCNC(=N)N)NC(=O)[C@@H](CCCNC(=N)N)NC(=O)[C@@H](CCCNC(=N)N)NC(=O)[C@@H](CCCCN)NC(=O)[C@@H](CCCCN)NC(=O)[C@@H](CCCCN)NC(=O)[C@@H]([C@H](C)O)NC(=O)[C@@H](C(C)C)NC(=O)[C@@H](CC(C)C)NC(=O)[C@@H](CCCNC(=N)N)NC1=O [cANK6r] (cyclo([dR][dK][dR][dI][dR][dL][dV][dT][dK][dK][dK][dR][dR]))	brain/plasma ratio ([1]; p.o.): 1.17; AUC %ID,0 - 1440, plasma [1, 5]: 17.9 min*% ID/mL; IC50 [2]: 14 µM; logBB, blood-brain equilibrium distribution [3]: –0.329; PS, permeability surface-area product [3]: 0.0003 mL/g/min; Vin [3]: 0.0396 mL/g; Kin, unidirectional influx rate constant [3]: 0.0003 mL/g/min
